For this assay, the target named is O-GlcNAcase (Homo sapiens (Human), UniProt O60502). As to the kind of experiment: Determination of KI values for inhibition of O-GlcNAcase activity (pNP-GlcNAc substrate, Dixon plots). The class given is biochemical. To be noted: PBS pH 7.4, 0.5 mM pNP-GlcNAc, 37° C., linear regression of a Dixon plot. As for the experimental part: Assay for Determination of […] for Inhibition of O-GlcNAcase Activity
Experimental Procedure for Kinetic Analyses:
Enzymatic reactions are carried out in PBS buffer (pH 7.4) using pNP-GlcNAc as a substrate (0.5 mM) and monitored continuously at 37° C. at 400 nm using a Cary 3E UV-VIS spectrophotometer equipped with a Peltier temperature controller. Reactions are pre-heated in a 500 μL quartz cuvette for approximately 5 minutes followed by addition of 10 μL enzyme via syringe (final enzyme concentration 0.002 mg/mL). Reaction velocities are determined by linear regression of the linear region of the reaction progress curve between the first and third minutes. An inhibitor concentration range of ⅕ to 5 times K1 is used in each case. […] All K1 values are determined using linear regression of Dixon plots.

Sequence of O-GlcNAcase (O60502 whole entry): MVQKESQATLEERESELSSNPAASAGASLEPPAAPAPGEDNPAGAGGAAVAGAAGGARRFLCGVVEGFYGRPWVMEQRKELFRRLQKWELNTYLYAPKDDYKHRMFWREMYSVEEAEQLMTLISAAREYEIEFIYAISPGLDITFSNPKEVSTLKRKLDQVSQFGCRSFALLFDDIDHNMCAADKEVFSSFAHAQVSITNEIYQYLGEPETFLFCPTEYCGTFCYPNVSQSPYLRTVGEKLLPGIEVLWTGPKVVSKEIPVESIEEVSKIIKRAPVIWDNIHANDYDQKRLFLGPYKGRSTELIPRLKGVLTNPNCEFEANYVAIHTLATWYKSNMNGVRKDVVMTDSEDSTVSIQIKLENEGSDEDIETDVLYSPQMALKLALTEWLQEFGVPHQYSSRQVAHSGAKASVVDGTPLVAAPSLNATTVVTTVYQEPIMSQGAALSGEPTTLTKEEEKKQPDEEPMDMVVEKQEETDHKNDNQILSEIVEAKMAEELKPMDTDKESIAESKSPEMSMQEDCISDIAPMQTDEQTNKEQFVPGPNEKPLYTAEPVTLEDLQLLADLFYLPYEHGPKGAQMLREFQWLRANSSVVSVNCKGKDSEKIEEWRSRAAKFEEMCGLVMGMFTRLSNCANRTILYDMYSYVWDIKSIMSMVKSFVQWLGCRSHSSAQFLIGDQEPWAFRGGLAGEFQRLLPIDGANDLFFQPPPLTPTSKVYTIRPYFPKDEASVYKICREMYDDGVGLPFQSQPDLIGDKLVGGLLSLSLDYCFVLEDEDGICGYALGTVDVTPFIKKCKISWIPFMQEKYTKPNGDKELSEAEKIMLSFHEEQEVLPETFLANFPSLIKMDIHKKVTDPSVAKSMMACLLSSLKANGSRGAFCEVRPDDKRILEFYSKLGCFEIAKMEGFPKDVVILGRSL

The compound `CN(C)C1=N[C@@H]2[C@@H](O)[C@H](O)[C@@H](CO)[C@@H]2O1` [Compound 2, (3aR,4R,5R,6R,6aS)-2-(dimethylamino)-6-(hydroxymethyl)-4,5,6,6a-tetrahydro-3aH-cyclopenta[d]oxazole-4,5-diol] had a Ki of 40 µM.

Usually Ki stands for the equilibrium dissociation constant of an inhibitor or competing ligand from its target. The low end stands for higher affinity, the high end for lower affinity.

(Values after patent US9079868B2, “Selective glycosidase inhibitors and uses thereof” (Simon Fraser University, priority 2008, dated 2015).)
